According to patent US8847018B2, “Plants tolerant to HPPD inhibitor herbicides” (Bayer CropScience AG, priority 2009, dated 2014):
Where two headings read alike, the source gives them in different places.

Key:
[1] = test system: tobacco plants containing Arabidopsis HPPD; test: Glasshouse trial, herbicidal damage on T1 tobacco; type: in vivo, Nicotiana tabacum; details: 7 DAT, 100 g AI/ha spray; Arabidopsis HPPD line 258, single T1 plants
Description: T0 Tobacco plants containing either the gene from Arabidopsis coding for HPPD or the gene FMP22e from Rhodococcus sp. (strain RHA1), isolate ro03041 coding for FMP22 HPPD, or the gene FMP23e from Rhodococcus sp. (strain RHA1), isolate ro02040 mentioned above (Example 3), were transferred to the glasshouse (28/20° C.), to develop further and produce seeds. Those seeds were harvested and put on soil (ED73 mixed with sand and osmocote Pro) to germinate in the glasshouse (28/20° C.). Three to four weeks later, plantlets were transferred to single pots containing the soil mentioned above. Two weeks later, plants of a size 4-6 cm diameter were sprayed with either • tembotrione at 100 gAl/ha prepared from a WP20 (wettable powder 20%) formulation supplemented with ammonium sulfate and methyl ester raps oil, or • isoxaflutole at 100 gAl/ha prepared from a WP20 formulation supplemented with ammonium sulfate and methyl ester raps oil, or • bicyclopyrone at 100 gAl/ha prepared from a WP20 formulation supplemented with ammonium sulfate and methyl ester raps oil, or • “blind formulation” made from a WP20 formulation without active ingredient (Al) supplemented with ammonium sulfate and methyl ester raps oil, and were then transferred to a growth chamber with adequate light conditions (20000 Lux).

[2] = test system: transgenic soybean shoots, FMP22t-h; test: Soybean shoot greening on isoxaflutole selection; type: cell-based; details: isoxaflutole as selection marker
Excerpt: (§1) Soybean transformation is achieved using methods well known in the art, such as the one described using the Agrobacterium tumefaciens mediated transformation soybean half-seed explants described by Paz et al. (2006, Plant cell Rep. 25:206). Transformants were identified using Isoxaflutole as selection marker. The appearance of green shoots was observed, and documented as an indicator of tolerance to the herbicide isoxaflutole.

wild-type soybean shoots = test: Soybean shoot greening on isoxaflutole selection; type: cell-based; details: same amount of isoxaflutole
Excerpt: as §1

[3] = test system: transgenic soybean shoots, FMP23t-h; test: Soybean shoot greening on isoxaflutole selection; type: cell-based; details: isoxaflutole as selection marker
Excerpt: as §1

[4] = test system: Rhodococcus HPPD SEQ ID No. 5 (FMP22e); test: biochemical; type: biochemical, Rhodococcus sp. (strain RHA1), isolate ro03041
[5] = test system: Rhodococcus HPPD SEQ ID No. 19 (FMP23e); test: biochemical; type: biochemical, Rhodococcus sp. (strain RHA1), isolate ro02040
[6] = target: T1, Arabidopsis thaliana HPPD SEQ ID No. 10 (Arabidopsis thaliana, UniProt P93836); test: HPPD activity in presence of HPPD inhibitors (pI50, % inhibition); type: biochemical; design: made in house; host or cells: E. coli K-12 BL21 (pQE30-AtHPPD)
T1 sequence (P93836 with tags, fused parts or gaps): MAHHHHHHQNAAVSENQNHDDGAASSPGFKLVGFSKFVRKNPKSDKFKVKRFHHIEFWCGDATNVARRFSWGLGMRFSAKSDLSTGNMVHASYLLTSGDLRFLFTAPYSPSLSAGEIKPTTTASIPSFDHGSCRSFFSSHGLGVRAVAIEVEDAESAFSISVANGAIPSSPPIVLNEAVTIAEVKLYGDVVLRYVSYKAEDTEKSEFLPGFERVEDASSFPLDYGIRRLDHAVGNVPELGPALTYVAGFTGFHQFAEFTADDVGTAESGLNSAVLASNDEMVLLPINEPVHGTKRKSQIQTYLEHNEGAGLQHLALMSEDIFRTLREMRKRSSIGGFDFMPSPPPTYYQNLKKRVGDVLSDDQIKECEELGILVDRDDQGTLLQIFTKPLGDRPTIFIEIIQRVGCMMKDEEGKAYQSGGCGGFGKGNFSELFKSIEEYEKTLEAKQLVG

(UniProt Q0SF39) [7] = test: HPLC assay of HPPD in vitro kinetic properties; type: biochemical, Rhodococcus sp. (strain RHA1), isolate ro02040
(UniProt Q0SC92) = test: biochemical; type: biochemical, Rhodococcus sp. (strain RHA1), isolate ro03041; details: read-out: pI50 (converted)
(UniProt Q0SF39) [8] = test: biochemical; type: biochemical, Rhodococcus sp. (strain RHA1), isolate ro02040; details: read-out: pI50 (converted)
[9] = test system: T1 tobacco plants carrying FMP23e; test: Response to bicyclopyrone, T1 tobacco classified by injury; type: in vivo, Nicotiana tabacum; details: 100 g AI/ha, 7 DAT, FMP23e line 188
Excerpt: (§2) Seeds of wild type tobacco plants and T1 tobacco plants carrying the gene from Rhodococcus sp. (strain RHA1), isolate ro03041 FMP22e coding for HPPD FMP22 or plants carrying the gene from Rhodococcus sp. (strain RHA1) isolate ro02040 FMP23e coding for HPPD FMP23 were sown on MS media (Murashige and Skoog […]) supplemented with […] kanamycin. After 4 weeks, rooted green plantlets were transferred to soil and grown for 3 weeks in the glasshouse as described above then sprayed with a mixture containing bicyclopyrone (100 g Al/ha), ammonium sulfate and methyl ester raps oil. The plants were classified in two categories based on the phenotype developed in response to the herbicide seven days after the treatment. […] In this case, only plants containing at least one T-DNA were exposed to the herbicidal treatment.

Wild type tobacco plants = test: as above; type: in vivo, Nicotiana tabacum; details: 100 g AI/ha, 7 DAT, line WT
Excerpt: as §2

[10] = test system: T1 tobacco plants carrying FMP22e; test: as above; type: in vivo, Nicotiana tabacum; details: 100 g AI/ha, 7 DAT; for Class I (number of plants): injury: 0-30%; for Class II (number of plants): injury: 31-100%
Excerpt: as §2

[11] = test system: Rhodococcus HPPD SEQ ID No. 19 (FMP23e); test: HPLC assay of HPPD in vitro kinetic properties; type: biochemical, Rhodococcus sp. (strain RHA1), isolate ro02040; details: substrate HPP, 10 to 400 μM; SEQ ID No. 19
[12] = target: T1, Arabidopsis thaliana HPPD SEQ ID No. 10; test: HPLC assay of HPPD in vitro kinetic properties; details: substrate HPP, 10 to 400 μM; SEQ ID No. 10
Description: All assays were started by the addition of HPPD enzyme to the assay mixture and stopped at a series of times between 0 and 240 s by addition of 200 μl of the reaction mixture to reaction assay tubes containing 20 μl 10% perchloric acid. Precipitated protein was pelleted by a 5 minute centrifugation at 10,000 g. […] For Km and Vmax value determinations the initial rates of the HPPD reaction at different substrate concentrations were determined from plots of HGA formed versus time and fitted to the Michaelis-Menten equation for unireactant enzymes using the ID Business Solutions Ltd. (idbs.com) XLfit software suite.

[13] = SEQ ID No. 5, 5.0 × 10^−6 M inhibitor
[14] = SEQ ID No. 19, 5.0 × 10^−6 M inhibitor

## CS(=O)(=O)c1cc(C(F)(F)F)ccc1C(=O)c1cnoc1C1CC1 [Isoxaflutole, (5-cyclopropyl-4-isoxazolyl)[2-(methylsulfonyl)-4-(trifluoromethyl)phenyl]methanone]
[1]
  % injury: 100%
[2]
  transgenic tested shoots showing normal greening: 1.8%
wild-type soybean shoots
  appearance of shoots treated with isoxaflutole: entirely bleached
[3]
  transgenic tested shoots showing normal greening: 1.9%

## Cc1nn(C)c(O)c1C(=O)c1ccc(C(F)(F)F)cc1S(C)(=O)=O [Pyrasulfotole]
[4]; SEQ ID No. 5, 2 mM HPP, 3 minutes incubation
  pI50: 4.0
[4]; [13]
  percentage of inhibition compared to activity in absence of the inhibitor: 0%
[5]; SEQ ID No. 19, 2 mM HPP, 3 minutes incubation
  pI50: 4.1
[5]; [14]
  percentage of inhibition compared to activity in absence of the inhibitor: 2%
[6]; 2 mM HPP, 3 minutes incubation
  pI50: 5.4
[6]; 5.0 × 10^−6 M inhibitor
  percentage of inhibition compared to activity in absence of the inhibitor: 69%

## CS(=O)(=O)c1cc(C(F)(F)F)ccc1C(=O)C(C#N)C(=O)C1CC1 (stereo not drawn) [Diketonitrile, 2-cyano-3-cyclopropyl-1-(2-methylsulphonyl-4-trifluoromethylphenyl)-propane-1,3-dione]
(UniProt Q0SF39) [7]
  Ki: 3.6 µM
[4]; [13]
  percentage of inhibition compared to activity in absence of the inhibitor: 27%
(UniProt Q0SC92)
  IC50: 15.8 µM
[5]; [14]
  percentage of inhibition compared to activity in absence of the inhibitor: 11%
(UniProt Q0SF39) [8]
  IC50: 25.1 µM

## COCCOCc1nc(C(F)(F)F)ccc1C(=O)C1=C(O)C2CCC(C2)C1=O (stereo not drawn) [Bicyclopyrone, 4-hydroxy-3-[[2-[(2-methoxyethoxy)methyl]-6-(trifluoromethyl)-3-pyridinyl]carbonyl]bicyclo[3.2.1]oct-3-en-2-one]
[9]
  % of tolerant plant: 59%
[9]; injury: 0-30%
  Class I (number of plants): 100
[9]; injury: 31-100%
  Class II (number of plants): 70
Wild type tobacco plants
  % of tolerant plant: 0%
Wild type tobacco plants; Class I: no to light injuries (injury: 0-30%)
  Class I (number of plants): 0
Wild type tobacco plants; Class II: strong injuries (injury: 31-100%)
  Class II (number of plants): 12
[10]; FMP22e line 64
  % of tolerant plant: >50%
  Class I (number of plants): >100
  Class II (number of plants): 104
[10]; FMP22e line 65
  % of tolerant plant: 64%
  Class I (number of plants): 86
  Class II (number of plants): 48
[10]; FMP22e line 163
  % of tolerant plant: 50%
  Class I (number of plants): 45
  Class II (number of plants): 46
[4]; [13]
  percentage of inhibition compared to activity in absence of the inhibitor: 0%
(UniProt Q0SC92)
  IC50: 126 µM
[5]; [14]
  percentage of inhibition compared to activity in absence of the inhibitor: 1%
(UniProt Q0SF39) [8]
  IC50: 63.1 µM

## CS(=O)(=O)c1ccc(C(=O)C2C(=O)CCCC2=O)c(Cl)c1COCC1CCCO1 (stereo not drawn) [Tefuryltrione, 2-[2-chloro-4-(methylsulfonyl)-3-[[(tetrahydro-2-furanyl)methoxy]methyl]benzoyl]-1,3-cyclohexanedione]
[4]; [13]
  percentage of inhibition compared to activity in absence of the inhibitor: 43%
(UniProt Q0SC92)
  IC50: 6.31 µM
[5]; [14]
  percentage of inhibition compared to activity in absence of the inhibitor: 65%
(UniProt Q0SF39) [8]
  IC50: 2.51 µM

## Cc1ccc(C(=O)COc2c(C(=O)c3ccc(Cl)c(C)c3Cl)c(C)nn2C)cc1 [Benzofenap]
[4]; [13]
  percentage of inhibition compared to activity in absence of the inhibitor: 57%
(UniProt Q0SC92)
  IC50: 3.98 µM
[5]; [14]
  percentage of inhibition compared to activity in absence of the inhibitor: 72%
(UniProt Q0SF39) [8]
  IC50: 2.51 µM

## O=C(O)C(=O)Cc1ccc(O)cc1 [HPP, para-hydroxyphenylpyruvate]
[11]
  Km: 35 µM
  Vmax: 1.1 µM
[12]
  Km: 6.3 µM
  Vmax: 1.2 µM

## CS(=O)(=O)c1ccc(C(=O)C2C(=O)CCCC2=O)c(Cl)c1 [Sulcotrione, 2-[2-chloro-4-(methylsulfonyl)benzoyl]-1,3-cyclohexanedione]
[4]
  pI50: 5.3
[5]
  pI50: 5.5
  percentage of inhibition compared to activity in absence of the inhibitor: 73%

## CS(=O)(=O)c1ccc(C(=O)C2C(=O)CCCC2=O)c([N+](=O)[O-])c1 [Mesotrione, 2-[4-(methylsulfonyl)-2-nitrobenzoyl]-1,3-cyclohexanedione]
[4]
  percentage of inhibition compared to activity in absence of the inhibitor: 54%
[5]
  percentage of inhibition compared to activity in absence of the inhibitor: 67%
